# Data as given in the supplement of paper PMC11208160.
# Assay: recombinant barcode read abundance after kanamycin selection (control-corrected) (log10(CPM+1)); higher = more efficient recombination; sequences stand for … in AGTGCAGAGAAAATCGGCCAGTTTTCTCTGCCTGCAGTCCGCATGCCGT…AGATTTATGCAGCGGACTGCCTTTCTCCCAAAGTGATAAACCGGACAGTATCATGGACCGGTTTTCCCGGTAATCCGTATTTGCAAGGTTGGTTTCACT; site = the 11-nt target
# How it was run: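 A vector carrying a T7-inducible recombinase and the last 73 bp of the bridge RNA received, by Gibson cloning, oligos encoding a promoter, target, barcode and the first 104 bridge RNA bases under J23119. The pooled constructs entered E. coli together with a donor plasmid by electroporation. Selection used chloramphenicol/ampicillin/kanamycin with 0.1 mM IPTG, with chloramphenicol/ampicillin LB agar as the control, each in two replicates. Recombination efficiency is the averaged, control-corrected counts-per-million of barcodes at recombinant junctions, reported as log10(CPM+1).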
# 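Also: IS621 recombinase and bridge RNA in Escherichia coli cells.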
row,Sequence,recombinant barcode read abundance (log10)
1,ATGCGAGCTTGGGTTCTAACCTGTTGCTG (site ATGCGAGCTCG),0.533
2,CTCTAGTCTTGGGTTCTAACCTGTTGCAT (site CTCTAGTCTAG),0.109
3,CCTGACTCTTGGGTTCTAACCTGTTGCCT (site CCTGAATCTAG),0.088
4,CTATGTGCTTGGGTTCTAACCTGTTGCCT (site CTATGTGCTAA),0.158
5,GAGGGCCCTTGGGTTCTAACCTGTTGCCT (site CAGGGCCCTAG),1.04
6,ACCTGGGCTTGGGTTCTAACCTGTTGCCT (site AGCTGGGCTAG),0
7,GCGCCCTCTTGGGTTCTAACCTGTTGCCT (site ACGCCCTCTAG),0.0862
8,TAGAACTCTTGGGTTCTAACCTGTTGCCC (site TAGAACTCTAG),0.296
9,GCCCCATCTTGGGTTCTAACCTGTTGCCT (site GCCCGATCTAG),0.37
10,GAGTCTACTTGGGTTCTAACCTGTTGCTT (site GACTCTACTAA),0.813
11,TGAGGTGCTTGGGTTCTAACCTGTTGCCT (site TGAGGTGCTAG),0.818
12,GAACTTGCTTGGGTTCTAACCTGTTGCCT (site GCCCTTGCTAG),0.176
13,ACAAGGCCTTGGGTTCTAACCTGTTGCCT (site CCAAGGCCTAG),0.784
14,GACACTGCTTGGGTTCTAACCTGTTGCCT (site GAAACTGCTAG),0.274
15,CGCTTGACTTGGGTTCTAACCTGTTGCCT (site CGCTAGACTAG),0.0413
16,TCCCTATCTTGGGTTCTAACCTGTTGCCT (site TTCCTATCTAG),0.0651
17,AGTAAGCCTTGGGTTCTAACCTGTTGCCT (site AGTTAGCCTAG),0.173
18,TCTCCTCCTTGGGTTCTAACCTGTTGCAT (site GAGGTCACTTA),0.115
19,ATAGGTTCTTGGGTTCTAACCTGTTGCCT (site ATAGGTTCTAG),1.49
20,AGCGGACCTTGGGTTCTAACCTGTTGCCT (site AGCGGTCCTAG),0.0865
21,CCTCAGGCTTGGGTTCTAACCTGTTGCCC (site CCTCAGGCTGG),0.651
22,TGATCTACTTGGGTTCTAACCTGTTGCTT (site TGTTCTACTAA),0.0588

row,Sequence,recombinant barcode read abundance (log10)
1,GAACAGCCTTGGGTTCTAACCTGTTGCGT (site ATTGCTACTTG),0.278
2,TCGGATACTTGGGTTCTAACCTGTTGCCT (site TCGGATACTAC),0.0175
3,ACTCGTTCTTGGGTTCTAACCTGTTGCTT (site ACTCGTTCTAA),0.326
4,ACGGTTGCTTGGGTTCTAACCTGTTGCCT (site ACGGGTGCTAG),0.434
5,TATGGGGCTTGGGTTCTAACCTGTTGCCT (site TATGCGGCTAG),0.0621
6,AGCAACACTTGGGTTCTAACCTGTTGCAG (site AGCAACACTCT),0.467
7,CTACTAACTTGGGTTCTAACCTGTTGCGT (site CTACTAACTAT),0.129
8,GGGCACACTTGGGTTCTAACCTGTTGCAC (site CTTGCATCTAG),0.244
9,AGAGGGTCTTGGGTTCTAACCTGTTGCCT (site AGAGGGTCTAG),2.79
10,CAATCGTCTTGGGTTCTAACCTGTTGCTT (site GAATCTTCTAA),0.0659
11,AGTTCGCCTTGGGTTCTAACCTGTTGCTA (site AGTGCGCCTTA),0.317
12,TCCCGTACTTGGGTTCTAACCTGTTGCAT (site TCCAGTACTAT),0.382
13,TCTAACACTTGGGTTCTAACCTGTTGCCT (site TCTAACACTAG),0.206
14,GTTCCATCTTGGGTTCTAACCTGTTGCCT (site GCTCCATCTAG),0.28
15,GTACAATCTTGGGTTCTAACCTGTTGCCT (site TTACAATCTAG),0.371
16,GCACGACCTTGGGTTCTAACCTGTTGCCT (site GCACAACCTAG),0.808
17,CCTTGTTCTTGGGTTCTAACCTGTTGCCT (site CCTTGTTCTAG),0.0314
18,GCCTATGCTTGGGTTCTAACCTGTTGCCT (site GGCTATGCTAG),0.0448
19,CTGCTCCCTTGGGTTCTAACCTGTTGCGG (site CTGATCCCTCC),0.124
20,GCTGGCCCTTGGGTTCTAACCTGTTGCCT (site GATGGCCCTAG),0.0865
21,GCACGACCTTGGGTTCTAACCTGTTGCCT (site GCACTACCTAG),0
22,TCGGAGTCTTGGGTTCTAACCTGTTGCGT (site TCGGAGTCTAA),0.499

row,Sequence,recombinant barcode read abundance (log10)
1,TTCTAGACTTGGGTTCTAACCTGTTGCCA (site GTCTATACTTG),0.16
2,AAAACTACTTGGGTTCTAACCTGTTGCCA (site AATGCTACTTG),0.15
3,CGGACGACTTGGGTTCTAACCTGTTGCCT (site CGGACGCCTAG),0.0677
4,ATGCGGTCTTGGGTTCTAACCTGTTGCCT (site CTGCGGTCTAT),0.112
5,GCGCGAACTTGGGTTCTAACCTGTTGCCT (site GCCCGAACTAG),0.047
6,CTGCAGTCTTGGGTTCTAACCTGTTGCCA (site CTGCAGTCTTG),0.18
7,CATGCGACTTGGGTTCTAACCTGTTGCGT (site CATGCGACTAC),0.472
8,CCGGATGCTTGGGTTCTAACCTGTTGCCT (site CCGTATGCTAG),0.0746
9,TGGAGTCCTTGGGTTCTAACCTGTTGCCT (site TGGGGTCCTAG),0.548
10,GCCCCATCTTGGGTTCTAACCTGTTGCCT (site GCCCTATCTAG),0.384
11,GACGAAGCTTGGGTTCTAACCTGTTGCCT (site TCCGAAGCTAG),0.0613
12,GTAGGCGCTTGGGTTCTAACCTGTTGCCT (site GTCGGCGCTAG),0.33
13,GTGGCTTCTTGGGTTCTAACCTGTTGCCT (site GGGGCTTCTAG),0.132
14,GAACGACCTTGGGTTCTAACCTGTTGCTG (site GAACGACCTAA),0.0602
15,CTTCGGGCTTGGGTTCTAACCTGTTGCAG (site CGTCGGGCTCT),0.0132
16,CGCTTGACTTGGGTTCTAACCTGTTGCCT (site CGCTCGACTAG),0.164
17,AGGTCACCTTGGGTTCTAACCTGTTGCCT (site AGGTCACCTAT),0.221
18,ACTATAACTTGGGTTCTAACCTGTTGCTT (site ACTCTAACTAA),0.535
19,CCTTAGACTTGGGTTCTAACCTGTTGCGT (site CCTTAGACTAC),1.8
20,GGGTTTGCTTGGGTTCTAACCTGTTGCCT (site GTGTTTGCTAG),0.667
21,TAGGCTGCTTGGGTTCTAACCTGTTGCCT (site TAGTCTGCTAG),0.519
22,CACTTCCCTTGGGTTCTAACCTGTTGCTT (site CACTTCCCTAG),0.442

row,Sequence,recombinant barcode read abundance (log10)
1,CCTAACCCTTGGGTTCTAACCTGTTGCGT (site CCTAACCCTAC),1.85
2,TACAGTACTTGGGTTCTAACCTGTTGCCT (site GACAGTACTAG),0.325
3,GATTCTCCTTGGGTTCTAACCTGTTGCCT (site GATTCTCCTAA),0.0949
4,TTGATATCTTGGGTTCTAACCTGTTGCCT (site TTGATATCTAG),0.149
5,CCTGGGACTTGGGTTCTAACCTGTTGCGA (site CCTGGGACTAC),0.0343
6,CGCAATGCTTGGGTTCTAACCTGTTGCCT (site CGCAATGCTAG),0.07
7,AGGAGTCCTTGGGTTCTAACCTGTTGCAG (site GTACAAGCTAG),0.239
8,CGTGGTCCTTGGGTTCTAACCTGTTGCGT (site CGTGGTCCTAG),0.224
9,TTAAGTCCTTGGGTTCTAACCTGTTGCCT (site TTCAGTCCTAT),0.134
10,GACCACTCTTGGGTTCTAACCTGTTGCCT (site AACCACTCTAG),1.4
11,CCGGTATCTTGGGTTCTAACCTGTTGCCT (site CCGCTATCTAG),0.688
12,GGACCTACTTGGGTTCTAACCTGTTGCCA (site GAACCTACTTG),0.0276
13,TGCTGATCTTGGGTTCTAACCTGTTGCCT (site TGCTGATCTAG),0.335
14,GACGATCCTTGGGTTCTAACCTGTTGCAT (site GACGATCCTAT),0.547
15,AAGCATGCTTGGGTTCTAACCTGTTGCTA (site CTCTTAACTCC),0.0074
16,TGCTGTACTTGGGTTCTAACCTGTTGCCT (site TGCTGTTCTAG),0.0131
17,GGTCGCGCTTGGGTTCTAACCTGTTGCCT (site GGTCGAGCTAG),0.113
18,TTACGCGCTTGGGTTCTAACCTGTTGCGG (site TTACGTGCTCC),0.0492
19,TGGCAGGCTTGGGTTCTAACCTGTTGCCT (site TGGCAGGCTAG),0.64
20,TTAACTACTTGGGTTCTAACCTGTTGCTC (site TTAACTACTCA),0.126
